In article PMC8539695, “Promising Natural Compounds against Flavivirus Proteases: Citrus Flavonoids Hesperetin and Hesperidin” (Plants, 2021):

What was measured:
WNV NS2B/NS3^pro [1] = target: T1, WNV NS2B/NS3^pro (West Nile virus, UniProt P06935); assay: biochemical; details: for inhibition at 10 µM: read-out: Inhibition of protease activity, primary inhibition test
T1 construct: tryptophan residues in the NS2B cofactor domain and in the NS3 protease domain; inferred from Ni-NTA purification and the pET-15b vector; made in house; host or cells: E. coli Lemo (DE3)
T1 sequence (P06935 1502-1679 limits assumed): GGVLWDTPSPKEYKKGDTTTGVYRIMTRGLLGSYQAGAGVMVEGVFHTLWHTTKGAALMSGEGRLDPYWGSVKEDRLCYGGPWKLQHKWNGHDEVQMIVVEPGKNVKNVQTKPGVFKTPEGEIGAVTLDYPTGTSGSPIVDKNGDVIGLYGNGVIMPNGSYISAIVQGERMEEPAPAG
T1 sequence (P06935 1424-1463 partner limits assumed): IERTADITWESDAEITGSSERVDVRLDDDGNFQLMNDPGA

YFV NS2B/NS3^pro [2] = target: T2, YFV NS2B/NS3^pro (Yellow fever virus, UniProt Q1X881); assay: biochemical; assay type: binding
T2 sequence (Q1X881 1485-1665 limits assumed): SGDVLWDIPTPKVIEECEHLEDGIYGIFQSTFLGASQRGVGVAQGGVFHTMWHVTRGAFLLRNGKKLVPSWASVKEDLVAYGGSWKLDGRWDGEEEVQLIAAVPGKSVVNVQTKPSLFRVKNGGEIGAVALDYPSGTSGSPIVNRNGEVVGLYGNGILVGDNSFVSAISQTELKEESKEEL
T2 sequence (Q1X881 1407-1446 partner limits assumed): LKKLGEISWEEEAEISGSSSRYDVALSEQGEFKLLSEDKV

YFV NS2B/NS3^pro [3] = target: T2, YFV NS2B/NS3^pro; assay: biochemical; details: for inhibition at 10 µM: read-out: Inhibition of protease activity, primary inhibition test
WNV NS2B/NS3^pro [4] = target: T1, WNV NS2B/NS3^pro; assay: biochemical; assay type: binding
DENV2 NS2B/NS3^pro [5] = target: T3, DENV2 NS2B/NS3^pro (Dengue virus type 2, UniProt P14340); assay: biochemical; assay type: biochemical
T3 construct: tryptophan residues in the NS2B cofactor domain and in the NS3 protease domain; inferred from Ni-NTA purification and the pET-15b vector; made in house; host or cells: E. coli Lemo (DE3)
T3 sequence (P14340 with tags, fused parts or gaps I1442G/L1443G/I1444G/R1445G/T1446S/DEL1448-1472/K1473G/Q1474G/R1475G): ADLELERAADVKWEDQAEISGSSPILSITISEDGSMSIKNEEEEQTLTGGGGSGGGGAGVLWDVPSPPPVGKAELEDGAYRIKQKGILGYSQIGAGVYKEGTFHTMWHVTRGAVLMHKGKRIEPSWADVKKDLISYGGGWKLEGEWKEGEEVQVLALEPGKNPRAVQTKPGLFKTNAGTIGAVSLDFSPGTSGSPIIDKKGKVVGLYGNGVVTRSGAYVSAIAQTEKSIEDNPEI

DENV2 NS2B/NS3^pro [6] = target: T3, DENV2 NS2B/NS3^pro; assay: biochemical; assay type: binding
ZIKV NS2B/NS3^pro [7] = system: ZIKV NS2B/NS3^pro; set-up: method as in PMID 33661906; details: ZIKV NS2B/NS3pro, cited from earlier work
ZIKV NS2B/NS3^pro [8] = target: ZIKV NS2B/NS3^pro; set-up: method as in PMID 33661906; details: ZIKV NS2B/NS3pro, value ± STD; cited from earlier work

Compound: COc1ccc(C2CC(=O)c3c(O)cc(OC4O[C@H](CO[C@@H]5O[C@@H](C)[C@H](O)[C@@H](O)[C@H]5O)[C@@H](O)[C@H](O)[C@H]4O)cc3O2)cc1O (some centres unmarked) [HSD, 3′,5,7-trihydroxy-4′-methoxy-flavanone-7-rhamnoglucoside]
- Concentration that inhibited 100% of the protease activity (WNV NS2B/NS3^pro [1]): 120 µM
- IC50 (WNV NS2B/NS3^pro [1]): 50.7 ± 8.3 µM
- Inhibition Mode (WNV NS2B/NS3^pro [1]): noncompetitive
- LE (ligand efficiency) (WNV NS2B/NS3^pro [1]): 0.14
- inhibition at 10 µM (WNV NS2B/NS3^pro [1]): ~30%
- Kd (YFV NS2B/NS3^pro [2]): 29.5 ± 2.8 µM
- Red edge excitation shift (REES) of the protease maximum fluorescence peak (YFV NS2B/NS3^pro [2]): no shift
- Concentration that inhibited 100% of the protease activity (YFV NS2B/NS3^pro [3]): 140 µM
- IC50 (YFV NS2B/NS3^pro [3]): 67.7 ± 7.5 µM
- Inhibition Mode (YFV NS2B/NS3^pro [3]): noncompetitive
- LE (ligand efficiency) (YFV NS2B/NS3^pro [3]): 0.13
- inhibition at 10 µM (YFV NS2B/NS3^pro [3]): ~30%
- Kd (WNV NS2B/NS3^pro [4]): 19.5 ± 2.8 µM
- Red edge excitation shift (REES) of the protease maximum fluorescence peak (WNV NS2B/NS3^pro [4]): no shift
- Concentration that inhibited 100% of the protease activity (DENV2 NS2B/NS3^pro [5]): 140 µM
- IC50 (DENV2 NS2B/NS3^pro [5]): 55.7 ± 2.5 µM
- Inhibition Mode (DENV2 NS2B/NS3^pro [5]): noncompetitive
- LE (ligand efficiency) (DENV2 NS2B/NS3^pro [5]): 0.14
- Kd (DENV2 NS2B/NS3^pro [6]): 20.9 ± 2.4 µM
- Red edge excitation shift (REES) of the protease maximum fluorescence peak (DENV2 NS2B/NS3^pro [6]): no shift

Compound: COc1ccc(C2CC(=O)c3c(O)cc(O)cc3O2)cc1O (centres unmarked) [HST, 3′,5,7-trihydroxy-4′-methoxyflavanone]
- Concentration that inhibited 100% of the protease activity (WNV NS2B/NS3^pro [1]): 80 µM
- IC50 (WNV NS2B/NS3^pro [1]): 4.27 µM
- Inhibition Mode (WNV NS2B/NS3^pro [1]): noncompetitive
- LE (ligand efficiency) (WNV NS2B/NS3^pro [1]): 0.34
- inhibition at 10 µM (WNV NS2B/NS3^pro [1]): ~70%
- IC50 (ZIKV NS2B/NS3^pro [7]; value ± STD): 12.6 ± 1.3 µM
- Inhibition Mode (ZIKV NS2B/NS3^pro [7]): noncompetitive
- pIC50 (ZIKV NS2B/NS3^pro [7]): 4.90
- Kd (YFV NS2B/NS3^pro [2]): 12.3 ± 2.2 µM
- Red edge excitation shift (REES) of the protease maximum fluorescence peak (YFV NS2B/NS3^pro [2]): 22 nm
- Concentration that inhibited 100% of the protease activity (YFV NS2B/NS3^pro [3]): 80 µM
- IC50 (YFV NS2B/NS3^pro [3]): 2.04 µM
- Inhibition Mode (YFV NS2B/NS3^pro [3]): noncompetitive
- LE (ligand efficiency) (YFV NS2B/NS3^pro [3]): 0.36
- inhibition at 10 µM (YFV NS2B/NS3^pro [3]): ~80%
- Kd (WNV NS2B/NS3^pro [4]): 13.5 ± 2 µM
- Red edge excitation shift (REES) of the protease maximum fluorescence peak (WNV NS2B/NS3^pro [4]): 15 nm
- Concentration that inhibited 100% of the protease activity (DENV2 NS2B/NS3^pro [5]): 140 µM
- IC50 (DENV2 NS2B/NS3^pro [5]): 4.7 ± 0.8 µM
- Inhibition Mode (DENV2 NS2B/NS3^pro [5]): noncompetitive
- LE (ligand efficiency) (DENV2 NS2B/NS3^pro [5]): 0.34
- Kd (DENV2 NS2B/NS3^pro [6]): 18.7 ± 2.7 µM
- Red edge excitation shift (REES) of the protease maximum fluorescence peak (DENV2 NS2B/NS3^pro [6]): 11 nm
- Kd (ZIKV NS2B/NS3^pro [8]): 17.8 ± 2.9 µM
